Legend:
[1] = tested on: BMDCs; test: In vivo DC migration out of the footpad, luciferase IVIS imaging; design: species or system albino C57BL/6 mice; conditions: 2×10^6 transduced BMDCs injected into footpad
Method: To determine if SHP-1 inhibition enhanced DC migration in vivo, BMDCs were prepared as described above but were transduced with an adenovirus expressing a clickbeetle red-shifted luciferase in addition to either Ad5-SHP-1-shRNA or Ad5-scrambled-shRNA. Transduced cells (2×10^6) were injected into the contralateral footpads of tyrosinase-deficient albino C57BL/6 mice (B6(Cg)-Tyr^c-2J/J, Jackson Laboratory). At the specified intervals mice were injected i.p. with 100 μl of 10 mg/mL luciferin and imaged in vivo using IVIS® (Caliper Life Sciences, Hopkinton, Mass.).

[2] = tested on: TRAMP C2 tumors; test: DC vaccination of mice bearing ectopic TRAMP C2 tumors; assay type: in vivo, C57BL/6 mice; conditions: by viral transduction, pooled across all peptide treatments, vs untreated mice
Method: BMDCs were prepared as described above, transduced with either Ad5-SHP-1-shRNA or the control Ad5-scrambled-shRNA at 40,000 viral particles/cell, and pulsed with one of the six peptides listed in Table 1 (OVA, an irrelevant epitope to TRAMP 2 tumors, served as a negative control peptide) or a lysate of TRAMP C2 cells as a positive control antigen. 6-8 week C57BL/6 mice, bearing TRAMP C2 tumors (7×10^6 cells injected s.c. on the dorsal flank three days prior to vaccination), were given a single i.p. vaccination with 2×10^6 treated DCs or left untreated. Tumors were measured (length and width using calipers) every 2-4 days until termination of the study and tumor volume was estimated using the formula: Tumor volume (mm3)=x^2y×0.5236, where x is the smaller tumor dimension, and y is the larger tumor dimension. A-G) TRAMP tumor growth curves for vaccines loaded with the indicated peptides. Error bars represent the standard error of the mean of 5 mice vaccinated in each treatment. […] H-I) ANOVA analysis of peptide function and SHP-1 function. Data represent the averages 10 mice per peptide treatment and 5 mice in the no treatment control group for H) and 35 mice per viral transduction treatment and 5 mice in the no treatment control group for I). The green diamonds represent the mean and 95% confidence interval for each group from the ANOVA. The black line is the mean of means for the study and red symbols indicate significant differences (p<0.05 by Tukey-Kramer HSD multiple comparisons test).
To determine if there was a significant difference between the various peptides used in these DC vaccinations, mice were pooled across viral treatments (Ad5-SHP-1 shRNA or Ad5-scrambled-shRNA) employing the same peptide. An ANOVA for differences in mean tumor volume at day 48 post-vaccination (the time at which the majority of the vaccinated tumor growth curves change slope) and Tukey-Kramer HSD multiple comparisons test.
Next experiments were conducted to determine if vaccines transduced with Ad5-SHP-1-shRNA inhibited tumor growth compared to transduction with Ad5-scrambled-shRNA or no vaccine treatment, irrespective of what peptide was used in the vaccine.

[3] = tested on: Akt; test: LPS stimulated Akt signaling in BMDCs, western blot; assay type: cell-based, C57BL/6 mice; conditions: CD11c positive BMDCs
Method: DC survival has been linked with activation of Akt/protein kinase B (PKB) family proteins, major effectors of phosphatidylinositol 3-kinase (PI3K) family members. LPS stimulated Akt signaling BMDCs was examined to determine if SHP-1 mediated survival might be working through this mechanism. MACS sorted for CD11c positive BMDCs were infected with either Ad5-SHP-1-shRNA or Ad5-scrambled-shRNA or left untreated. Cells (10^7) per group were treated with 1 μg/mL LPS for the times indicated or left untreated. Lysates were analyzed by western blot for phosphorylated Akt. […] This observation provides a mechanism for the increased survival seen when SHP-1 signaling was inhibited, in certain embodiments (FIG. 8). LPS stimulation also appears to enhance the total level of SHP-1 protein in DCs as shown by the SHP-1 blot for cells treated with Ad5-scrambled-shRNA.

Sequence: CACCGGAGCATGACACAGCAGAATACGAATATTCTGCTGTGTCATGCTCC (chemistry not given here) [Ad5-SHP-1-shRNA]
- DCs in the footpad at 24 hours post-injection [1]: undetectable in the footpad by 24 hours post injection
- time by which DCs are seen to migrate out of the footpad ([1]; post-injection): ≤ 2 h
- TRAMP C2 tumor volume (ANOVA) [2]: significantly lower tumor volumes
- steady state expression of total Akt protein [3]: enhanced the steady state expression of total Akt protein
- LPS mediated Akt phosphorylation ([3]; 1 μg/mL LPS): enhanced LPS mediated Akt phosphorylation

Reference: patent publication US20090123501A1, “INHIBITION OF THE SH2-DOMAIN CONTAINING PROTEIN TYR-PHOSPHATASE, SHP-1, TO ENHANCE VACCINES” (Baylor College of Medicine, priority 2007, published 2009)
